The source of these data is patent US20050234046A1 (Kalypsys, Inc., priority 2004, published 2005).

What all share (experiment): Transient transfection (transactivation) assay in CV-1 cells, GAL4-PPAR chimera, luciferase reporter
Common to all, as to type: cell-based

In one assay the target is T1, PPAR alpha (Homo sapiens, UniProt Q07869).
T1 construct: expressed in transfected cells; host or cells: CV-1 cells
T1 sequence (Q07869 239-466 limits assumed): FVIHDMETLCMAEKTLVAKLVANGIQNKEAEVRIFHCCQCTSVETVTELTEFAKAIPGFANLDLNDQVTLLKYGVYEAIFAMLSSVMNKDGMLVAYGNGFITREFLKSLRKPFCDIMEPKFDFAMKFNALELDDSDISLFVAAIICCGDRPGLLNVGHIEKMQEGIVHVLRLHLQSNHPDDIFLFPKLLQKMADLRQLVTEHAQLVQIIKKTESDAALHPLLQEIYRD
The text has this:
Compounds may be screened for functional potency in transient transfection assays in CV-1 cells or other cell types for their ability to activate the PPAR subtypes (transactivation assay). A previously established chimeric receptor system was utilized to allow comparison of the relative transcriptional activity of the receptor subtypes on the same synthetic response element and to prevent endogenous receptor activation from complicating the interpretation of results. See, for example; Lehmann, J. M.; Moore, L. B.; Smith-Oliver, T. A; Wilkinson, W. O.; Willson, T. M.; Kliewer, S. A., An antidiabetic thiazolidinedione is a high affinity ligand for peroxisome proliferatur-activated receptor γ (PPARγ), J. Biol. Chem., 1995, 270, 12953-6. The ligand binding domains for murine and human PPAR-alpha, PPAR-gamma, and PPAR-delta are each fused to the yeast transcription factor GAL4 DNA binding domain. CV-1 cells were transiently transfected with expression vectors for the respective PPAR chimera along with a reporter construct containing four or five copies of the GAL4 DNA binding site driving expression of luciferase. After 8-16 h, the cells are replated into multi-well assay plates and the media is exchanged to phenol-red free DME medium supplemented with 5% delipidated calf serum. 4 hours after replating, cells were treated with either compounds or 1% DMSO for 20-24 hours. Luciferase activity was then assayed with Britelite (Perkin Elmer) following the manufacturer's protocol and measured with either the Perkin Elmer Viewlux or Molecular Devices Acquest Xsee, for example, Kliewer, S. A., et. al. Cell 1995, 83, 813-819). Rosiglitazone is used as a positive control in the hPPAR-γ assay. Wy-14643 and GW7647 is used as a positive control in the hPPAR-α assay. GW501516 is used as the positive control in the hPPAR-δ assay.
Compounds of Examples 1-233 were assayed to measure their biological activity with respect to their EC50 values and efficacy for modulating PPAR-alpha, PPAR-gamma, and PPAR-delta as set forth in Table 3.

The next assay concerns the target T2, PPAR delta (Homo sapiens, UniProt Q03181).
T2 construct: expressed in transfected cells; host or cells: CV-1 cells
T2 sequence (Q03181 211-439 limits assumed): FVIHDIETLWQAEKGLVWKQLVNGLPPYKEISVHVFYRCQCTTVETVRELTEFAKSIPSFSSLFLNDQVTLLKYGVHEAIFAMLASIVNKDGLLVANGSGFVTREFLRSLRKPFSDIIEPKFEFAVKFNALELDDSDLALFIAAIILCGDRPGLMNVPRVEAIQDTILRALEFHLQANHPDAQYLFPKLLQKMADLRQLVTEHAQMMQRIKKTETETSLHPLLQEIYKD

The target of the next assay is T3, PPAR gamma (Homo sapiens, UniProt P37231).
T3 construct: expressed in transfected cells; host or cells: CV-1 cells
T3 sequence (P37231 238-503 limits assumed): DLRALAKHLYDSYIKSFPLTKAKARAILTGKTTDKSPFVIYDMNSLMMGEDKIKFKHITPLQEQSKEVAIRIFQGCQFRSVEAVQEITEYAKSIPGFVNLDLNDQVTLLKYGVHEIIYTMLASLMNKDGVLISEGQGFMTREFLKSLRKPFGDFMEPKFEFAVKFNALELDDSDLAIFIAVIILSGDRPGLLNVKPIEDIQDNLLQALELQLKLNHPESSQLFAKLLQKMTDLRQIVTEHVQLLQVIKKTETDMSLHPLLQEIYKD

Structures are written as SMILES. pEC50: −log10 of the molar value.

Turning to `Cc1ccc(S(=O)(=O)N2C[C@H](C)N(c3ccc(C(F)(F)F)cn3)C[C@H]2C)cc1CC(=O)O` (mixture of isomers) [Example 21, SR and RS-{5-[2,5-Dimethyl-4-(5-trifluoromethyl-pyridin-2-yl)-piperazine-1-sulfonyl]-2-methyl-phenyl}-acetic acid], the pEC50 (commonly the negative decadic logarithm of the EC50, by convention in mol/L) at PPAR alpha was below 4.00; at PPAR delta it was above 5.30; on PPAR gamma, 4.00 to 5.30.

Turning to `Cc1ccc(S(=O)(=O)N2CCN(c3ccc(C(F)(F)F)cn3)[C@@H](C)[C@H]2C)cc1CC(=O)O` (mixture of isomers) [Example 104, RS and SR-{5-[2,3-Dimethyl-4-(5-trifluoromethyl-pyridin-2-yl)-piperazine-1-sulfonyl]-2-methyl-phenyl}-acetic acid], the pEC50 on PPAR alpha was 4.00 to 5.30; on PPAR delta, above 5.30; at PPAR gamma it was above 5.30.

For `Cc1cc(CC(=O)O)cc(S(=O)(=O)N2CCN(c3ccc(C(F)(F)F)cn3)[C@@H](C)[C@H]2C)c1` (mixture of isomers) [Example 106, RS and SR-{3-[2,3-Dimethyl-4-(5-trifluoromethyl-pyridin-2-yl)-piperazine-1-sulfonyl]-5-methyl-phenyl}-acetic acid], the pEC50 on PPAR alpha is below 4.00; on PPAR delta, above 5.30; on PPAR gamma, below 4.00.

As for `C[C@@H]1[C@H](C)N(c2ccc(C(F)(F)F)cn2)CCN1S(=O)(=O)c1cccc(CC(=O)O)c1` (racemic) [Example 105, RS and SR-{3-[2,3-Dimethyl-4-(S-trifluoromethyl-pyridin-2-yl)-piperazine-1-sulfonyl]-phenyl}-acetic acid], the pEC50 on PPAR alpha was below 4.00; at PPAR delta, above 5.30; at PPAR gamma it was above 5.30.

For the compound `Cc1ccc(S(=O)(=O)N2CCN(c3ccc(C(F)(F)F)cn3)[C@H](C)C2)cc1CC(=O)O` (single isomer, unassigned) [Example 69], the values for the pEC50 on PPAR alpha, at PPAR delta and on PPAR gamma were 4.00 to 5.30, above 5.30 and above 5.30, respectively.

`Cc1ccc(CC(=O)O)cc1S(=O)(=O)N1CCC(c2ccc(Cl)cc2)CC1` [Example 1]: the pEC50 was below 4.00 on PPAR alpha, above 5.30 at PPAR delta and below 4.00 on PPAR gamma.

On to `Cc1ccc(S(=O)(=O)N2CCC(c3ccc(Cl)cc3)CC2)cc1CC(=O)O` [Example 2, {5-[4-(4-Chlorophenyl)-piperidine-1-sulfonyl]-2-methyl-phenyl}-acetic acid], for which the pEC50 on PPAR alpha is below 4.00; at PPAR delta, 4.00 to 5.30; on PPAR gamma, below 4.00.

As for `O=C(O)Cc1cccc(S(=O)(=O)N2CCN(c3ccc(C(F)(F)F)cc3)CC2)c1` [Example 3, {3-[4-(4-Trifluoromethyl-phenyl)-piperazine-1-sulfonyl]-phenyl}-acetic acid], the pEC50 at PPAR alpha was 4.00 to 5.30; on PPAR delta, above 5.30; on PPAR gamma, 4.00 to 5.30.

On to `O=C(O)Cc1cccc(S(=O)(=O)N2CCN(c3ccc(C(F)(F)F)cn3)CC2)c1` [Example 4, {3-[4-(5-Trifluoromethyl-pyridin-2-yl)-piperazine-1-sulfonyl]-phenyl}-acetic acid], for which the pEC50 at PPAR alpha is 4.00 to 5.30; on PPAR delta, above 5.30; on PPAR gamma, 4.00 to 5.30.

Take `Cc1ccc(S(=O)(=O)N2CCCN(c3ccc(C(F)(F)F)cc3)CC2)cc1CC(=O)O` [Example 5, {2-Methyl-5-[4-(4-trifluoromethyl-phenyl)-[1,4]diazepane-1-sulfonyl]-phenyl}-acetic acid]: the results for the pEC50 at PPAR alpha, at PPAR delta and at PPAR gamma were below 4.00, above 5.30 and 4.00 to 5.30, respectively.

Regarding `Cc1ccc(S(=O)(=O)N2CCN(c3ccc(C(F)(F)F)cn3)CC2C(C)C)cc1CC(=O)O` (stereo not drawn) [Example 6, {5-[2-Isopropyl-4-(5-trifluoromethyl-pyridin-2-yl)-piperazine-1-sulfonyl]-2-methyl-phenyl}-acetic acid], the pEC50 at PPAR alpha was 4.00 to 5.30; at PPAR delta it was above 5.30; on PPAR gamma it was 4.00 to 5.30.

`CCC1CN(c2ccc(C(F)(F)F)cn2)CCN1S(=O)(=O)c1ccc(C)c(CC(=O)O)c1` (stereo not drawn) [Example 7, {5-[2-Ethyl-4-(5-trifluoromethyl-pyridin-2-yl)-piperazine-1-sulfonyl]-2-methyl-phenyl)-acetic acid]: the pEC50 on PPAR alpha is 4.00 to 5.30; at PPAR delta it was above 5.30; on PPAR gamma it was 4.00 to 5.30.

In the case of `Cc1ccc(S(=O)(=O)N2CCCN(c3ccc(C(F)(F)F)cn3)CC2)cc1CC(=O)O` [Example 8, {2-Methyl-5-[4-(5-trifluoromethyl-pyridin-2-yl)-[1,4]diazepane-1-sulfonyl]-phenyl}-acetic acid], the results for the pEC50 on PPAR alpha, at PPAR delta and on PPAR gamma were 4.00 to 5.30, above 5.30 and above 5.30, respectively.

On to `Cc1ccc(S(=O)(=O)N2CCCN(c3ncc(C(F)(F)F)cc3Cl)CC2)cc1CC(=O)O` [Example 9], for which the pEC50 at PPAR alpha, at PPAR delta and at PPAR gamma was above 5.30 throughout.

On to `Cc1ccc(S(=O)(=O)N2C[C@@H]3C[C@H]2CN3c2cccc(F)c2)cc1CC(=O)O` [Example 10, S,S-{5-[4-(3-Fluorophenyl)-2,5-diaza-bicyclo[2.2.1]heptane-1-sulfonyl]-2-methyl-phenyl}acetic acid], for which the results for the pEC50 on PPAR alpha, at PPAR delta and on PPAR gamma were below 4.00, 4.00 to 5.30 and below 4.00, respectively.

Take `Cc1ccc(S(=O)(=O)N2C[C@@H]3C[C@H]2CN3c2ccc(F)cc2)cc1CC(=O)O` [Example 11]: the values for the pEC50 at PPAR alpha, at PPAR delta and on PPAR gamma were below 4.00, 4.00 to 5.30 and below 4.00, respectively.

Regarding `Cc1ccc(S(=O)(=O)N2CCCN(c3ncccc3C(F)(F)F)CC2)cc1CC(=O)O` [Example 12, {2-Methyl-5-[4-(3-trifluoromethyl-pyridin-2-yl)-[1,4]diazepane-1-sulfonyl]-phenyl}-acetic acid], the pEC50 on PPAR alpha was below 4.00; at PPAR delta it was 4.00 to 5.30; on PPAR gamma it was 4.00 to 5.30.

Turning to `Cc1ccc(S(=O)(=O)N2CCCN(c3ccncc3)CC2)cc1CC(=O)O` [Example 13], the pEC50 on PPAR alpha was below 4.00; on PPAR delta it was 4.00 to 5.30; on PPAR gamma, below 4.00.

Regarding `Cc1ccc(S(=O)(=O)N2CCCC(c3ccc(C(F)(F)F)cc3)C2)cc1CC(=O)O` (stereo not drawn) [Example 15, {2-Methyl-5-[3-(4-trifluoromethyl-phenyl)-piperidine-1-sulfonyl]-phenyl}-acetic acid], the pEC50 was 4.00 to 5.30 on PPAR alpha, above 5.30 at PPAR delta and 4.00 to 5.30 on PPAR gamma.

For `Cc1ccc(S(=O)(=O)N2CCCC(c3cccc(C(F)(F)F)c3)C2)cc1CC(=O)O` (stereo not drawn) [Example 16, {2-Methyl-5-[3-(3-trifluoromethyl-phenyl)-piperidine-1-sulfonyl]-phenyl}-acetic acid], the pEC50 at PPAR alpha was below 4.00; on PPAR delta, 4.00 to 5.30; at PPAR gamma, above 5.30.

`Cc1ccc(S(=O)(=O)N2CCN(c3nc4ccccc4o3)CC2)cc1CC(=O)O` [Example 17, [5-(4-Benzoxazol-2-yl-piperazine-1-sulfonyl)-2-methyl-phenyl]-acetic acid]: the pEC50 at PPAR alpha is 4.00 to 5.30; at PPAR delta, above 5.30; on PPAR gamma, 4.00 to 5.30.

Turning to `Cc1ccc(S(=O)(=O)N2CCN(c3nc4ccccc4s3)CC2)cc1CC(=O)O` [Example 18, [5-(4-Benzothiazol-2-yl-piperazine-1-sulfonyl)-2-methyl-phenyl]-acetic acid], the pEC50 at PPAR alpha, at PPAR delta and on PPAR gamma was above 5.30 each time.
